Data from US5252601A, “2-mercaptomethylene-tetrahydronaphthalene and indane-2-carboxamide derivatives as enkephalinase inhibitors” (Merrell Dow Pharmaceuticals Inc., priority 1992, dated 1993).
Like-named read-outs stand apart in the source and are kept apart here.

Assays:
Enkephalinase = molecular target: T1, Enkephalinase (Rattus norvegicus, UniProt P07861); test: Enkephalinase inhibition, fluorometric assay with dansyl-D-AlaGly(p-nitro)PheGly substrate; assay type: biochemical; conditions: 50 mM HEPES pH 7.4, 25° C.; for Ki: enzyme partially purified from rat kidney, 12 μM substrate
T1 construct: Enkephalinase is partially purified from rat kidney; from tissue; host or cells: rat kidney, microvilli fraction (Triton X-100 extract or proteolytic treatment, then Mono Q anion exchange)
T1 sequence (P07861 1-750): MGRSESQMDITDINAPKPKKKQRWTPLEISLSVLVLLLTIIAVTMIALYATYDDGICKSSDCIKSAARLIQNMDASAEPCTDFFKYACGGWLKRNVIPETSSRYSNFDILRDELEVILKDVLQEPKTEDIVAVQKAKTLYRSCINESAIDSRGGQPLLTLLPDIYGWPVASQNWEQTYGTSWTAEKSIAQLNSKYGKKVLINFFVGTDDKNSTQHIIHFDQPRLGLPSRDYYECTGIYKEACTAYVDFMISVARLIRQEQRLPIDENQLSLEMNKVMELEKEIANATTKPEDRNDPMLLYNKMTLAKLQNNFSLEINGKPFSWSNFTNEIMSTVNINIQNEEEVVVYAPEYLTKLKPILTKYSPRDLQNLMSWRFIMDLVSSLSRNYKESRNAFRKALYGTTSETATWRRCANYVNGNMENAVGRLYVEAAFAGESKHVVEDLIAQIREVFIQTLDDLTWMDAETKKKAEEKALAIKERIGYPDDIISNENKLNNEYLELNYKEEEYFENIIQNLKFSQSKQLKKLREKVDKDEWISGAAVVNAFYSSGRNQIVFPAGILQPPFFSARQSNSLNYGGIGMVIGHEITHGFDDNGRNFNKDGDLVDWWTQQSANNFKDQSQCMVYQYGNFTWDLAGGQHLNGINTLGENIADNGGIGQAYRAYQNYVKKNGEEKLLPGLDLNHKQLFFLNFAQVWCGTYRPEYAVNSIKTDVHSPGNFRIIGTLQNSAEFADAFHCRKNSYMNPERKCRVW
Text: Enkephalinase is partially purified from rat kidney. The enzyme is extracted from the microvilli fraction by using Triton X-100 according to the method of Malfroy and Schwartz [J. Biol. Chem. 259, 14365-14370 (1984)] or by using a proteolytic treatment according to the method of Almenoff and Orlowski [Biochem. 22, 590-599 (1983)]. The enzyme is further purified by anion exchange chromatography (Mono QTM column, Pharmacia) using a Pharmacia FPLC system. The enzyme activity may be measured by the fluorometric methods of Florentin et al. [Anal. Biochem. 141, 62-69 (1984)] or of Almenoff and Orlowski [J. Neurochemistry 42, 151-157 (1984)]. […] The substrate (and inhibitor) is added from a concentrated stock solution in DMSO (up to […] DMSO final volume). The enzyme in a small volume (approximately 0.1 μg of FPLC purified protein) is added to initiate the reaction and the rate of fluorecense increase is recorded continuously using a fluorometer (excitation at 339 nm, emission at 562 nm).

[1] = tested on: specific binding sites in various tissues including kidney, adrenal, aorta, and vascular smooth muscle; conditions: Needleman, Hypertension 7, 469 (1985), cited from earlier work

Compound	Ki (Enkephalinase)	also measured
O=C(O)CCNC(=O)C1(CS)CCc2ccccc2C1 (stereo not drawn) [100,185, N-[[1,2,3,4-Tetrahydro-2-(mercarptomethyl)-2-naphthalenyl]carbonyl]-β-alanine]	≤ 200 pM	–
O=C(O)CNC(=O)C1(CS)CCc2ccccc2C1 (centres unmarked) [100,250, N-[[1,2,3,4-Tetrahydro-2-(mercarptomethyl)-2-naphthalenyl]carbonyl]-glycine]	400 pM	–
ANP: family of naturally-occurring peptides which are involved in the homeostatic regulation of blood pressure, as well as sodium and water levels	–	Kd ([1]; affinities ranging from about, read-out: affinity (lower end of range)): ≥ 50 pM; Kd ([1]; affinities ranging to about, read-out: affinity (upper end of range)): ≤ 500000 pM
dansyl-D-AlaGly(p-nitro)PheGly [reference compound]	–	Km (Enkephalinase; substrate of the assay): 40 µM

Continued, in another order:

Ki (Enkephalinase)	Compound	also measured
600 pM	O=C(N[C@H]1CC[C@@H](C(=O)O)CC1)C1(CS)CCc2ccccc2C1 (relative stereo) [100,552, 4-[[[1,2,3,4-Tetrahydro-2-(mercarptomethyl)-2-naphthalenyl]carbonyl]amino]- cis-cyclohexanecarboxylic acid]	–
2000 pM	CC(C)[C@H](NC(=O)C1(CS)CCc2ccccc2C1)C(=O)O (stereo partly drawn) [101,782, N-[[1,2,3,4-Tetrahydro-2-(mercarptomethyl)-2-naphthalenyl]carbonyl]-L-valine]	–
300 pM	C[C@H](NC(=O)C1(CS)CCc2ccccc2C1)C(=O)O (stereo partly drawn) [101,890, N-[[1,2,3,4-Tetrahydro-2-(mercarptomethyl)-2-naphthalenyl]carbonyl]-L-alanine]	–
